According to patent US12252524B2, “GIP/GLP1 co-agonist compounds” (Eli Lilly and Company, priority 2018, dated 2025):
pEC50: −log10 of the molar value. Where two headings read alike, the source gives them in different places. Numbered stars: 1 amine (or outer) side, 2 acyl side, 3 side chain; on linkers, the order of the positions; unused ones are H or OH. Square brackets hold non-standard residues; d marks the D form. Side chains are listed from the residue outwards. Peptide text beside a SMILES is read from it. * marks the point of attachment. C20 diacid = O=C(O)CCCCCCCCCCCCCCCCCCC(=O)*; γGlu = O=C(O)[C@H](CCC(=O)[*:2])N[*:1]; AEEA = NCCOCCOCC(=O)O; Aib = CC(C)(N)C(=O)O

What was measured:
human GLP-1R = human GLP-1R (Homo sapiens, UniProt P43220); test: GLP-1R HEK293 cell membrane [35S]GTPγS binding assay; assay type: biochemical; parameters: expressed in transfected cells; host or cells: HEK293 cells expressing human GLP-1R; membranes
Sequence of human GLP-1R (P43220 24-463): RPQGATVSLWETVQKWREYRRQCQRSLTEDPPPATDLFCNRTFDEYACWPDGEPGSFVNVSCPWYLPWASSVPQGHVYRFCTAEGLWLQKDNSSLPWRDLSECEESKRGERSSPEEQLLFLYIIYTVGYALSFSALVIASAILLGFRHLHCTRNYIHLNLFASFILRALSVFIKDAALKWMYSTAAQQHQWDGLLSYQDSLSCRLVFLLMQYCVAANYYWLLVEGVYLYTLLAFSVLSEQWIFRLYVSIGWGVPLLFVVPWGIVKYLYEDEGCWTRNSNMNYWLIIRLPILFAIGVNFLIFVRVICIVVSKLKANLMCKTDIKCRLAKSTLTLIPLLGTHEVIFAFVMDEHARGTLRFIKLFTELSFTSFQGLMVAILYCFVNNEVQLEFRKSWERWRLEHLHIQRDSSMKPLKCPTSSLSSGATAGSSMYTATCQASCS
Method in brief: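 Membranes from HEK293 cells expressing the receptor incubated with peptide and […] [35S]GTPγS in HEPES pH 7.4 buffer with NaCl, MgCl2, saponin and BSA, 30 min at room temperature. Gαs-bound label captured by anti-Gαs antibody/SPA beads and counted; EC50 from four-parameter logistic fit.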

[1] = tested on: CD8+ T cell depleted peripheral blood mononuclear cells
Method: (§2) The purpose of this study is to determine the relative potential for clinical immunogenicity of a compound.
(§3) CD8+ T cell depleted peripheral blood mononuclear cells are prepared and labeled with Carboxyfluorescein Diacetate Succinimidyl Ester (CFSE, Invitrogen) from a cohort of 10 healthy donors. […] Cultures are incubated for 7 days at 37° C. with 5% CO2. On day 7, samples are analyzed by flow cytometry using High Throughput Sampler (HTS). Data is analyzed using FlowJo® Software (FlowJo, LLC, TreeStar).

[2] = Peptide stability in 50% v/v pig small intestinal fluid with and without protease inhibitor; assay type: in vitro ADME; details: for % peptide intact: 0 min; for remaining at 0.25 h: 15 min; for remaining at 0.25 h / remaining at 0.5 h / remaining at 1 h: read-out: % peptide intact; for remaining at 0.5 h: 30 min; for remaining at 1 h: 60 min
Method: A peptide is incubated at 37° C. in 1% (v/v) rat small intestinal fluid or 50% (v/v) pig small intestinal fluid with and without a peptidase inhibitor. At different time points, samples are taken out, followed by quenching with 1% TFA in 50% ACN/water to stop the enzyme activity. The intact peptide at different time points is analyzed by high-performance liquid chromatography (HPLC) equipped with an ultraviolet (UV) detector or LC-MS/MS and normalized to the amount of peptide before mixing with the enzyme solution.

[3] = tested on: CD8+ T cell depleted peripheral blood mononuclear cells; test: CD4+ T cell assay for potential clinical immunogenicity
Method: as §2, §3

[4] = Proteolytic stability assay in 90% pig small intestinal fluid (pSIF); assay type: in vitro ADME; details: 90% pSIF, 37° C.
Method: Peptides are diluted to a concentration of 0.4 mg/mL in 90% pig small intestinal fluid. After the mixing, 20 μL are immediately removed (time 0 for the time point of pre-incubation). The mixture is then incubated at 37° C. at 150 rpm. […] The sample is centrifuged at 20,000×g for 20 min at 4° C.
(§1) The data analysis is performed using MassLynx.

[5] = Proteolytic stability assay in 1% rat small intestinal fluid (rSIF)
Method: The stability of peptides are compared in 1% rat small intestinal fluid (rSIF). The amount of intact peptide is measured for a sample peptide at 0, 3, 15, and 30 minutes to assess proteolytic stability. The amount of intact peptide for a sample peptide is measured in 90% pig small intestinal fluid (pSIF) at 0, 30, 45, and 60 minutes to assess the proteolytic stability.
Peptides are prepared at 0.4 mg/mL in 50 mM Tris pH8.0. […] The mixture is incubated at 37° C. at 150 rpm. Thirty μL of each sample are removed and placed into a new tube before the rSIF is added and at […]. At each time point, the reaction was quenched by 1% TFA in 50% ACN at 1:1. The samples are diluted 100 times using dilution buffer (1:1 of 1% TFA in 50% ACN: 50 mM Tris pH8) and ready for analysis using mass spectrometry (MS).
as §1

[6] = pH 8, with rSBTI (5 mg/mL), protease inhibitor, rSBTI (5 mg/mL)
[7] = rat, real gastrointestinal fluid or homogenate, pH 8

SMILES: CC[C@H](C)[C@H](NC(=O)[C@H](CC(C)C)NC(=O)[C@H](Cc1ccc(O)cc1)NC(=O)[C@H](CCC(=O)O)NC(=O)[C@@H](NC(=O)[C@H](Cc1ccccc1)NC(=O)[C@H](C)NC(=O)C(C)(C)NC(=O)[C@H](CCC(N)=O)NC(=O)[C@H](C)NC(=O)[C@H](CCCCNC(=O)COCCOCCNC(=O)COCCOCCNC(=O)CC[C@H](NC(=O)CCCCCCCCCCCCCCCCCCC(=O)O)C(=O)O)NC(=O)[C@H](CCCCN)NC(=O)[C@H](CC(=O)O)NC(=O)[C@H](CC(C)C)NC(=O)[C@H](CC(C)C)NC(=O)[C@@H](NC(=O)[C@H](CO)NC(=O)[C@H](Cc1ccc(O)cc1)NC(=O)[C@H](CC(=O)O)NC(=O)[C@H](CO)NC(=O)[C@@H](NC(=O)[C@H](Cc1ccccc1)NC(=O)[C@@H](NC(=O)CNC(=O)[C@H](CCC(=O)O)NC(=O)C(C)(C)NC(=O)[C@@H](N)Cc1ccc(O)cc1)[C@@H](C)O)[C@@H](C)O)[C@@H](C)CC)[C@@H](C)CC)C(=O)N[C@@H](C)C(=O)NCC(=O)NCC(=O)N1CCC[C@H]1C(=O)N[C@@H](CO)C(=O)N[C@@H](CO)C(=O)NCC(=O)N[C@@H](C)C(=O)N1CCC[C@H]1C(=O)N1CCC[C@H]1C(=O)N1CCC[C@H]1C(=O)N[C@@H](CO)C(N)=O [Example 288] (H-Y[Aib]EGTFTSDYSILLDKK([AEEA-AEEA-γGlu-C20 diacid])AQ[Aib]AFIEYLIAGGPSSGAPPPS-NH2; N-terminus assumed)
- EC50 (human GLP-1R; HEK293 cell membranes expressing human GLP-1R, [35S]GTPγS binding, read-out: hGLP1R GTPgS Rel EC50 nM (SEM, n)): 0.666 nM
- frequency of positive CD+ T cell response (CDI>2.5) [1]: low

SMILES: CC[C@H](C)[C@H](NC(=O)[C@H](CC(C)C)NC(=O)[C@](C)(Cc1ccc(O)cc1)NC(=O)[C@@H](CCC(=O)O)NC(=O)[C@@H](NC(=O)[C@H](Cc1ccccc1)NC(=O)[C@H](CCC(=O)O)NC(=O)C(C)(C)NC(=O)[C@H](CCC(N)=O)NC(=O)[C@H](C)NC(=O)[C@H](CCCCNC(=O)COCCOCCNC(=O)COCCOCCNC(=O)CC[C@H](NC(=O)CCCCCCCCCCCCCCCCC(=O)O)C(=O)O)NC(=O)[C@H](CCCN)NC(=O)[C@H](CC(=O)O)NC(=O)[C@H](CC(C)C)NC(=O)[C@](C)(CC(C)C)NC(=O)[C@@H](NC(=O)[C@H](CO)NC(=O)[C@H](Cc1ccncc1)NC(=O)[C@H](CC(=O)O)NC(=O)[C@H](CO)NC(=O)[C@@H](NC(=O)[C@](C)(Cc1ccccc1F)NC(=O)[C@@H](NC(=O)CNC(=O)[C@H](CCC(=O)O)NC(=O)C(C)(C)NC(=O)[C@@H](N)Cc1ccc(O)cc1)[C@@H](C)O)[C@@H](C)O)[C@@H](C)CC)[C@@H](C)CC)C(=O)N[C@@H](CCC(=O)O)C(=O)NCC(=O)NCC(=O)N1CCC[C@H]1C(=O)N[C@@H](CO)C(=O)N[C@@H](CO)C(=O)NCC(=O)N[C@@H](C)C(=O)N1CCC[C@H]1C(=O)N1CCC[C@H]1C(=O)N1CCC[C@H]1C(=O)N[C@@H](CO)C(N)=O [Example 4]
- % peptide intact ([2]; no PI, control): 100.00%
- remaining at 0.25 h ([2]; pH 8, no PI, control): 72.5%
- remaining at 0.5 h ([2]; pH 8, no PI, control): 41.4%
- remaining at 1 h ([2]; pH 8, no PI, control): 19%
- remaining at 0.25 h [2, 6]: 97%
- remaining at 0.5 h [2, 6]: 96.3%
- remaining at 1 h [2, 6]: 88.6%
- % peptide intact ([2]; rSBTI (5 mg/mL)): 100.00%
- pEC50 (human GLP-1R): 9.61
- frequency of positive CD+ T cell response (CDI>2.5) ([3]; CD4+ T cell assay): low
- % Donor Response (CD4+ T cell response) ([3]; Examples 10 uM, KLH 0.33 μM, 7 days): 0%
- percentage of peptide not cleaved using pSIF ([4]; 0 min): 100%
- remaining at 0.5 h, 0.4 mg/mL ([4]; pig, 90% pig small intestinal fluid (pSIF), 30 min, read-out: percentage of peptide not cleaved using pSIF): 73.4%
- remaining at 0.75 h, 0.4 mg/mL ([4]; pig, 90% pig small intestinal fluid (pSIF), 45 min, read-out: percentage of peptide not cleaved using pSIF): 56.4%
- remaining at 1 h, 0.4 mg/mL ([4]; pig, 90% pig small intestinal fluid (pSIF), 60 min, read-out: percentage of peptide not cleaved using pSIF): 60%
- percentage of peptide not cleaved using rSIF ([5]; 0 min, 1% rSIF, 37° C.): 100%
- remaining at 0.05 h, 0.4 mg/mL [5, 7]: 97.9%
- remaining at 0.25 h, 0.4 mg/mL [5, 7]: 99.3%
- remaining at 1 h, 0.4 mg/mL [5, 7]: 89.4%
